Drawing on patent US8563714B2, “Bridged spiro [2.4] heptane derivatives as ALX receptor and/or FPRL2 agonists” (Actelion Pharmaceuticals Ltd., priority 2009, dated 2013), this text covers EC50 for 19 compounds.

A word on the EC50: it is the concentration at which the effect is half-maximal.

In one test the target is T1, human ALX receptor (Homo sapiens, UniProt P25090).
T1 construct: expressed in transfected cells; host or cells: HEK293 (HEK293-hALXR-Gα16)
T1 sequence (P25090 1-351): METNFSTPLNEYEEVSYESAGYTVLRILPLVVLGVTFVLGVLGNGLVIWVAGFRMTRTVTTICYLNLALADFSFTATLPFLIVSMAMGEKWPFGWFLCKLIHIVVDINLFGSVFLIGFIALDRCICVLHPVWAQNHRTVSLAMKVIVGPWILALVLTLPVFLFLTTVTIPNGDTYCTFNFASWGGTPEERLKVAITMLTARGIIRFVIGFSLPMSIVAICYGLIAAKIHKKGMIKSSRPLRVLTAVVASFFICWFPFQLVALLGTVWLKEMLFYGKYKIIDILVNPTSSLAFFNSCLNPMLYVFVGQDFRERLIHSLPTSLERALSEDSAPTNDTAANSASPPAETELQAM
Nature of the test: Intracellular calcium measurements (FLIPR), agonistic activity in HEK293-hALXR-Gα16 cells. The settings on record: Fluo-4 calcium FLIPR, normalized to WKYMVm 10 nM. It is filed as cell-based. The essentials:
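HEK293 cells expressing hALXR and Gα16 were loaded with 1 μM Fluo-4 AM and 20 mM HEPES for 60 min at 37°C, then exposed to serially diluted compound. FLIPR fluorescence was read at ex 488/em 540 nm. Baseline-subtracted peak responses were normalized to 10 nM WKYMVm.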
(Calcium assays in cells follow changes in intracellular calcium, usually with a dye or a luminescent sensor.)

The target in another test is T2, human FPRL2 (Homo sapiens, UniProt P25089).
T2 construct: expressed in transfected cells; host or cells: HEK293 (HEK293-hFPRL2-Gα16)
T2 sequence (P25089 1-353): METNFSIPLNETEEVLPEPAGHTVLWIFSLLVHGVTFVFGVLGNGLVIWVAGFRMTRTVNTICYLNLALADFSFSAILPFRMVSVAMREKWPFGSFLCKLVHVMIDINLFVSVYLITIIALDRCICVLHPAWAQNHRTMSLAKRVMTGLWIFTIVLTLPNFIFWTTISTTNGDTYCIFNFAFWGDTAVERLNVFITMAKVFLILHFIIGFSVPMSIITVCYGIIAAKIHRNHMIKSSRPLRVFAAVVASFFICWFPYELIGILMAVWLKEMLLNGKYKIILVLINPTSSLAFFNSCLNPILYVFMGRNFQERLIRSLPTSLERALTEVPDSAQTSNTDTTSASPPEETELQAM
Nature of the test: Intracellular calcium measurements (FLIPR), agonistic activity in HEK293-hFPRL2-Gα16 cells. The format is cell-based. The settings on record: Fluo-4 calcium FLIPR, normalized to GLY14-Humanin 100 nM. The essentials:
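Peak values after baseline subtraction are expressed relative to 100 nM Gly14-Humanin; compounds diluted in assay buffer from 10 mM DMSO stocks.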

Take `CC(=O)c1ccc(CNC(=O)[C@H]2[C@H](C(=O)NCCCCN3CCCC3)[C@H]3C=C[C@@H]2C32CC2)cc1` (racemic) [Example 363, (5R*)—N^5-(4-Acetylphenyl-methyl)-(6R*)—N^6-(4-pyrrolidino-butyl)-(4S*,7R*)-[4,7-ethenylene-spiro[2.4]heptane]-5,6-dicarboxamide]: the EC50 at human ALX receptor came to 9.74 µM; at human FPRL2 it was 0.57 µM.

Take `O=C(NCCCCN1CCCC1)[C@H]1[C@H](C(=O)NCc2cc(C(F)(F)F)ccc2Cl)[C@@H]2C=C[C@H]1C21CC1` (racemic) [Example 364, (5R*)—N^5-(2-Chloro-5-trifluoromethylphenyl-methyl)-(6R*)—N^6-(4-pyrrolidino-butyl)-(4S*,7R*)-[4,7-ethenylene-spiro[2.4]heptane]-5,6-dicarboxamide]: the values for the 50% effective concentration (EC50) on human ALX receptor and at human FPRL2 were 9.97 µM and 0.372 µM, respectively.

On to `O=C(NCCCCN1CCCC1)[C@H]1[C@H](C(=O)NCc2cc(C(F)(F)F)ccc2F)[C@@H]2C=C[C@H]1C21CC1` (racemic) [Example 365, (5R*)—N^5-(2-Fluoro-5-trifluoromethylphenyl-methyl)-(6R*)—N^6-(4-pyrrolidino-butyl)-(4S*,7R*)-[4,7-ethenylene-spiro[2.4]heptane]-5,6-dicarboxamide], for which the figures for the EC50 on human ALX receptor and at human FPRL2 were 9.97 µM and 0.35 µM, respectively.

`O=C(NCCCCN1CCCC1)[C@H]1[C@H](C(=O)NCc2ccc(F)c(C(F)(F)F)c2)[C@@H]2C=C[C@H]1C21CC1` (racemic) [Example 366, (5R*)—N^5-(4-Fluoro-3-trifluoromethylphenyl-methyl)-(6R*)—N^6-(4-pyrrolidino-butyl)-(4S*,7R*)-[4,7-ethenylene-spiro[2.4]heptane]-5,6-dicarboxamide]: the EC50 on human ALX receptor came out at 10 µM; at human FPRL2, 0.366 µM.

Consider `O=C(NCCCCN1CCCC1)[C@H]1[C@H](C(=O)NCc2cc(Cl)nc(Cl)c2)[C@@H]2C=C[C@H]1C21CC1` (racemic) [Example 367, (5R*)—N^5-[(2,6-Dichloropyridin-4-yl)methyl]-(6R*)—N^6-(4-pyrrolidino-butyl)-(4S*,7R*)-[4,7-ethenylene-spiro[2.4]heptane]-5,6-dicarboxamide], for which the EC50 on human ALX receptor came out at 10.6 µM; on human FPRL2, 0.644 µM.

Turning to `Cc1ccc(C)c(CNC(=O)[C@H]2[C@H](C(=O)NCCCCN3CCCC3)[C@H]3C=C[C@@H]2C32CC2)c1` (racemic) [Example 368, (5R*)—N^5-(2,5-Dimethylphenyl-methyl)-(6R*)—N^6-(4-pyrrolidino-butyl)-(4S*,7R*)-[4,7-ethenylene-spiro[2.4]heptane]-5,6-dicarboxamide], the EC50 at human ALX receptor came to 11.1 µM; on human FPRL2, 0.255 µM.

As to `Cc1nc(NC(=O)[C@H]2[C@H](C(=O)NCCCCN3CCCC3)[C@H]3C=C[C@@H]2C32CC2)sc1C` (racemic) [Example 369, (5R*)—N^5-(4,5-Dimethyl-thiazol-2-yl)-(6R*)—N^6-(4-pyrrolidino-butyl)-(4S*,7R*)-[4,7-ethenylene-spiro[2.4]heptane]-5,6-dicarboxamide], the half-maximal effective concentration (EC50) on human ALX receptor is over 25 µM; at human FPRL2, 0.204 µM.

Regarding `COc1ccc(C)cc1CNC(=O)[C@H]1[C@H](C(=O)NCCCCN2CCCC2)[C@H]2C=C[C@@H]1C21CC1` (racemic) [Example 370, (5R*)—N^5-(2-Methoxy-5-methylphenyl-methyl)-(6R*)—N^6-(4-pyrrolidino-butyl)-(4S*,7R*)-[4,7-ethenylene-spiro[2.4]heptane]-5,6-dicarboxamide], the EC50 at human ALX receptor was over 25 µM; at human FPRL2, 0.18 µM.

With `O=C(NCCCCN1CCCC1)[C@H]1[C@H](C(=O)NCc2c(F)ccc(F)c2Cl)[C@@H]2C=C[C@H]1C21CC1` (racemic) [Example 371, (5R*)—N^5-(2-Chloro-3,6-difluorophenyl-methyl)-(6R*)—N^6-(4-pyrrolidino-butyl)-(4S*,7R*)-[4,7-ethenylene-spiro[2.4]heptane]-5,6-dicarboxamide], the EC50 was over 25 µM on human ALX receptor and 0.271 µM at human FPRL2.

Consider `CC(C)Oc1ccccc1CNC(=O)[C@H]1[C@H](C(=O)NCCCCN2CCCC2)[C@H]2C=C[C@@H]1C21CC1` (racemic) [Example 372, (5R*)—N^5-(2-Isopropoxyphenyl-methyl)-(6R*)—N^6-(4-pyrrolidino-butyl)-(4S*,7R*)-[4,7-ethenylene-spiro[2.4]heptane]-5,6-dicarboxamide], for which the EC50 on human ALX receptor is over 25 µM; on human FPRL2, 0.389 µM.

In the case of `Cc1ccc(F)c(CNC(=O)[C@H]2[C@H](C(=O)NCCCCN3CCCC3)[C@H]3C=C[C@@H]2C32CC2)c1Cl` (racemic) [Example 373, (5R*)—N^5-(2-Chloro-6-fluoro-3-methylphenyl-methyl)-(6R*)—N^6-(4-pyrrolidino-butyl)-(4S*,7R*)-[4,7-ethenylene-spiro[2.4]heptane]-5,6-dicarboxamide], the EC50 was over 25 µM at human ALX receptor and 0.478 µM on human FPRL2.

For the compound `COc1ccc(CNC(=O)[C@H]2[C@H](C(=O)NCCCCN3CCCC3)[C@H]3C=C[C@@H]2C32CC2)cc1Cl` (racemic) [Example 374, (5R*)—N^5-(3-Chloro-4-methoxyphenyl-methyl)-(6R*)—N^6-(4-pyrrolidino-butyl)-(4S*,7R*)-[4,7-ethenylene-spiro[2.4]heptane]-5,6-dicarboxamide], the EC50 at human ALX receptor is 2.62 µM; at human FPRL2, 0.237 µM.

Take `COc1ccc(CNC(=O)[C@H]2[C@H](C(=O)NCCCCN3CCCC3)[C@H]3C=C[C@@H]2C32CC2)cc1OC` (racemic) [Example 375, (5R*)—N^5-(3,4-Dimethoxyphenyl-methyl)-(6R*)—N^6-(4-pyrrolidino-butyl)-(4S*,7R*)-[4,7-ethenylene-spiro[2.4]heptane]-5,6-dicarboxamide]: the EC50 on human ALX receptor came out at 9.05 µM; at human FPRL2 it was 0.443 µM.

`COc1ccc(CNC(=O)[C@H]2[C@H](C(=O)NCCCCN3CCCC3)[C@H]3C=C[C@@H]2C32CC2)c(OC)c1` (racemic) [Example 376, (5R*)—N^5-(2,4-Dimethoxyphenyl-methyl)-(6R*)—N^6-(4-pyrrolidino-butyl)-(4S*,7R*)-[4,7-ethenylene-spiro[2.4]heptane]-5,6-dicarboxamide]: the EC50 on human ALX receptor is 10.3 µM; on human FPRL2, 0.334 µM.

Regarding `COc1ccc(CCNC(=O)[C@H]2[C@H](C(=O)NCCCCN3CCCC3)[C@H]3C=C[C@@H]2C32CC2)cc1OC` (racemic) [Example 377, (5R*)—N^5-(2-(3,4-Dimethoxyphenyl)ethyl)-(6R*)—N^6-(4-pyrrolidino-butyl)-(4S*,7R*)-[4,7-ethenylene-spiro[2.4]heptane]-5,6-dicarboxamide], the EC50 is over 25 µM on human ALX receptor and 0.417 µM on human FPRL2.

Regarding `COc1ccc(CCNC(=O)[C@H]2[C@H](C(=O)NCCCCN3CCCC3)[C@H]3C=C[C@@H]2C32CC2)cc1` (racemic) [Example 378, (5R*)—N^5-(2-(4-Methoxyphenyl)ethyl)-(6R*)—N^6-(4-pyrrolidino-butyl)-(4S*,7R*)-[4,7-ethenylene-spiro[2.4]heptane]-5,6-dicarboxamide], the EC50 on human ALX receptor came to 8.61 µM; on human FPRL2, 0.074 µM.

With `O=C(NCCCCN1CCCC1)[C@H]1[C@H](C(=O)NCCc2ccc(Br)cc2)[C@@H]2C=C[C@H]1C21CC1` (racemic) [Example 379, (5R*)—N^5-(2-(4-Bromophenyl)ethyl)-(6R*)—N^6-(4-pyrrolidino-butyl)-(4S*,7R*)-[4,7-ethenylene-spiro[2.4]heptane]-5,6-dicarboxamide], the EC50 was determined as 8.81 µM on human ALX receptor and 0.0066 µM on human FPRL2.

With `Cc1ccc(CCNC(=O)[C@H]2[C@H](C(=O)NCCCCN3CCCC3)[C@H]3C=C[C@@H]2C32CC2)cc1C` (racemic) [Example 380, (5R*)—N^5-(2-(3,4-Dimethylphenyl)ethyl)-(6R*)—N^6-(4-pyrrolidino-butyl)-(4S*,7R*)-[4,7-ethenylene-spiro[2.4]heptane]-5,6-dicarboxamide], the EC50 at human ALX receptor was over 25 µM; on human FPRL2, 0.103 µM.

Regarding `O=C(NCCCCN1CCCC1)[C@H]1[C@H](C(=O)NCCc2ccc3c(c2)OCO3)[C@@H]2C=C[C@H]1C21CC1` (racemic) [Example 383, (5R*)—N^5-(2-(Benzo[d][1,3]dioxol-5-yl)ethyl)-(6R*)—N^6-(4-pyrrolidino-butyl)-(4S*,7R*)-[4,7-ethenylene-spiro[2.4]heptane]-5,6-dicarboxamide], the EC50 at human ALX receptor stood at 7.68 µM; on human FPRL2, 0.029 µM.
